Measurements taken from patent US11426375B2, “Substituted bisphenyl butanoic ester derivatives as NEP inhibitors” (NOVARTIS AG, priority 2019, dated 2022).

Columns and labels:
[1] = system: DSS (Dahl Salt Sensitive) rats; experiment: In vivo efficacy study on blood pressure in DSS rats (telemetry; systolic and diastolic pressure); details: for Systolic blood pressure, mean / Diastolic blood pressure, Mean: Compound I-1 50 mg/kg; for Systolic blood pressure, mean: alone or combined, QD PO
Source text: An in vivo study ascertains the effects on blood pressure in DSS (Dahl Salt Sensitive) rats. The DSS hypertensive rat model is a model of hypertension that is sensitive to dietary salt (NaCl), see for example Rapp (1982) Hypertension 4:753-763 and Hegde et al. BMC Pharmacology 2011, 11 (Suppl 1):P33. Under pentobarbital sodium anesthesia, a DSI (Data Sciences International, St. Paul, Minn.) telemetric probe is implanted. The transducer is inserted into abdominal aorta, and the transmitter is implanted into abdominal cavity. During postoperative recovery period, close observation is performed. Analgesics (Buprenorphine, 0.1-0.5 mg/kg, once per day for 1 day) and preventive antibiotics (Cephradine, 10˜15 mg/kg, ip., once per day for 3 days) are administered on a daily basis. Before the treatment period, all animals are fed with 8% high salt food for about 2 weeks. Test compound is formulated in 0.5% HPC and administered by oral gavage. Five groups of animals are treated as follows: 1. Vehicle, 0.5% HPC, QD, PO, N=5 2. Valsartan, 30 mg/kg, QD, PO, N=5 3. Compound I-1, 50 mg/kg, QD, PO, N=6 4. Compound I-1, 15 mg/kg+Valsartan, 30 mg/kg, QD, PO, N=5 5. Compound I-1, 50 mg/kg+Valsartan, 30 mg/kg, QD, PO, N=5 N is the number of animals. The mean arterial pressure, systolic pressure, diastolic pressure and heart rate after administration for each animal are measured. Interim results obtained before full study completion are shown in Tables 18 and 19 (full cohort of animals beyond day 7 were reduced due to some loss). Mean measurements of the systolic (Table 18) and diastolic (Table 19) blood pressures, for the baseline day prior to first treatment and for treatment days 1 and 7 only, in each treatment group, are shown. Measurements obtained every other hour only are shown.

[2] = Hygroscopicity, weight gain at 90% RH; type: physicochemical; details: after exposure to 90% RH
Source text: The weight gain of compound I-1 after exposure to 90% RH (relatively humidity) was 0.34%, while that of AHU377 under the same conditions was 3.4%. […] On the other hand, AHU377 is a wax-like solid, which needs to be properly processed before further pharmaceutical processing such as weighing, dispensing and filling.

[3] = design: species or system Sprague Dawley rats; details: rat, in vivo, po, 10 mg/kg
Description: A parallel study design consisting of four groups with three animals per group was conducted to examine the pharmacokinetic properties of the compounds of the present disclosure.
The drugs were administered to each group are as follows: compound I-1 (Group 1), compound I-2 (Group 2), compound I-3 (Group 3), and AHU377 (sacubitril) (Group 4). Each animal received a single 10 mg/kg (5 ml/kg) oral gavage dose of the specified study drug. The animal weights ranged from […] at the beginning of the study. Compound I-1, compound I-2, compound I-3, and AHU377 were formulated in 0.5% methylcellulose (400 cp) and 0.1% Tween 80 (w,v) in water was used as the vehicle. Water bath sonication was applied to facilitate dispersing for all four study drugs. Blood samples for pharmacokinetics analysis were collected at t=0.25, 0.5, 1, 2, 4, 8, and 24 hours (±5%) post dose administration. Plasma was prepared by collecting whole blood samples into tubes containing EDTA and NaF (final concentrations: ˜1 mg/mL (K2EDTA) and ˜2 mg/mL (NaF)). These tubes were kept in an ice bath prior to centrifugation at approximately 2,000 rcf for 10 minutes at approximately 5° C. To each resultant plasma sample, 50% phosphoric acid (v/v) was added to achieve a final concentration of 1% (v,v).
[^13C4]-LBQ657 was added as an internal standard to the pharmacokinetic (PK) samples and calibration standards prior to analysis by LC-MS/MS. The LC-MS system consisted of an API6500+ mass spectrometer coupled to an Agilent 1290 HPLC system equipped with a CTC Pal autosampler. The mass spectrometer was operated in the positive ion mode with a TESI ion source.

CCOC(=O)[C@H](C)C[C@@H](Cc1ccc(-c2ccccc2)cc1)NC(=O)CCC(=O)N[C@@H](CC(C)C)C(=O)O [Compound I-1, (4-(((2S,4R)-1-([1,1′-biphenyl]-4-yl)-5-ethoxy-4-methyl-5-oxopentan-2-yl)amino)-4-oxobutanoyl)-L-leucine]
Systolic blood pressure, mean ([1]; Baseline day prior to first treatment, Hour 1, groups Valsartan 30 mg/kg): 163.63
Systolic blood pressure, mean ([1]; Baseline day prior to first treatment, Hour 3, groups Valsartan 30 mg/kg): 159.24
Systolic blood pressure, mean ([1]; Baseline day prior to first treatment, Hour 5, groups Valsartan 30 mg/kg): 155.66
Systolic blood pressure, mean ([1]; Baseline day prior to first treatment, Hour 7, groups Valsartan 30 mg/kg): 154.92
Systolic blood pressure, mean ([1]; Baseline day prior to first treatment, Hour 9, groups Valsartan 30 mg/kg): 157.92
Systolic blood pressure, mean ([1]; Baseline day prior to first treatment, Hour 11, groups Valsartan 30 mg/kg): 162.87
Systolic blood pressure, mean ([1]; Baseline day prior to first treatment, Hour 13, groups Valsartan 30 mg/kg): 167.91
Systolic blood pressure, mean ([1]; Baseline day prior to first treatment, Hour 15, groups Valsartan 30 mg/kg): 167.33
Systolic blood pressure, mean ([1]; Baseline day prior to first treatment, Hour 17, groups Valsartan 30 mg/kg): 167.09
Systolic blood pressure, mean ([1]; Baseline day prior to first treatment, Hour 19, groups Valsartan 30 mg/kg): 169.48
Systolic blood pressure, mean ([1]; Baseline day prior to first treatment, Hour 21, groups Valsartan 30 mg/kg): 169.41
Systolic blood pressure, mean ([1]; Baseline day prior to first treatment, Hour 23, groups Valsartan 30 mg/kg): 161.71
Diastolic blood pressure, Mean ([1]; Baseline day, Hour 1): 111.95
Diastolic blood pressure, Mean ([1]; Baseline day, Hour 3): 107.76
Diastolic blood pressure, Mean ([1]; Baseline day, Hour 5): 104.17
Diastolic blood pressure, Mean ([1]; Baseline day, Hour 7): 102.18
Diastolic blood pressure, Mean ([1]; Baseline day, Hour 9): 105.63
Diastolic blood pressure, Mean ([1]; Baseline day, Hour 11): 111.89
Diastolic blood pressure, Mean ([1]; Baseline day, Hour 13): 116.86
Diastolic blood pressure, Mean ([1]; Baseline day, Hour 15): 115.85
Diastolic blood pressure, Mean ([1]; Baseline day, Hour 17): 116.42
Diastolic blood pressure, Mean ([1]; Baseline day, Hour 19): 117.36
Diastolic blood pressure, Mean ([1]; Baseline day, Hour 21): 116.95
Diastolic blood pressure, Mean ([1]; Baseline day, Hour 23): 109.93
Diastolic blood pressure, Mean ([1]; Dosing day 1, Hour 1): 115.05
Diastolic blood pressure, Mean ([1]; Dosing day 1, Hour 3): 106.99
Diastolic blood pressure, Mean ([1]; Dosing day 1, Hour 5): 104.66
Diastolic blood pressure, Mean ([1]; Dosing day 1, Hour 7): 106.82
Diastolic blood pressure, Mean ([1]; Dosing day 1, Hour 9): 108.88
Diastolic blood pressure, Mean ([1]; Dosing day 1, Hour 11): 114.90
Diastolic blood pressure, Mean ([1]; Dosing day 1, Hour 13): 116.00
Diastolic blood pressure, Mean ([1]; Dosing day 1, Hour 15): 117.42
Diastolic blood pressure, Mean ([1]; Dosing day 1, Hour 17): 118.42
Diastolic blood pressure, Mean ([1]; Dosing day 1, Hour 19): 122.21
Diastolic blood pressure, Mean ([1]; Dosing day 1, Hour 21): 115.68
Diastolic blood pressure, Mean ([1]; Dosing day 1, Hour 23): 111.09
Diastolic blood pressure, Mean ([1]; Dosing day 7, Hour 1): 118.61
Diastolic blood pressure, Mean ([1]; Dosing day 7, Hour 3): 109.11
Diastolic blood pressure, Mean ([1]; Dosing day 7, Hour 5): 108.96
Diastolic blood pressure, Mean ([1]; Dosing day 7, Hour 7): 114.22
Diastolic blood pressure, Mean ([1]; Dosing day 7, Hour 9): 126.44
Diastolic blood pressure, Mean ([1]; Dosing day 7, Hour 11): 129.02
Diastolic blood pressure, Mean ([1]; Dosing day 7, Hour 13): 131.34
Diastolic blood pressure, Mean ([1]; Dosing day 7, Hour 15): 126.20
Diastolic blood pressure, Mean ([1]; Dosing day 7, Hour 17): 127.80
Diastolic blood pressure, Mean ([1]; Dosing day 7, Hour 19): 124.88
Diastolic blood pressure, Mean ([1]; Dosing day 7, Hour 21): 116.93
Diastolic blood pressure, Mean ([1]; Dosing day 7, Hour 23): 120.18
effect on blood pressure ([1]; DSS rats, as compared to animals treated with vehicle alone, interim results): trend for lower blood pressure
Systolic blood pressure, mean ([1]; Dosing day 1, Hour 1, Valsartan 30 mg/kg): 164.94
Systolic blood pressure, mean ([1]; Dosing day 1, Hour 3, Valsartan 30 mg/kg): 152.46
Systolic blood pressure, mean ([1]; Dosing day 1, Hour 5, Valsartan 30 mg/kg): 155.79
Systolic blood pressure, mean ([1]; Dosing day 1, Hour 7, Valsartan 30 mg/kg): 159.33
Systolic blood pressure, mean ([1]; Dosing day 1, Hour 9, Valsartan 30 mg/kg): 166.16
Systolic blood pressure, mean ([1]; Dosing day 1, Hour 11, Valsartan 30 mg/kg): 168.46
Systolic blood pressure, mean ([1]; Dosing day 1, Hour 13, Valsartan 30 mg/kg): 169.35
Systolic blood pressure, mean ([1]; Dosing day 1, Hour 15, Valsartan 30 mg/kg): 169.78
Systolic blood pressure, mean ([1]; Dosing day 1, Hour 17, Valsartan 30 mg/kg): 174.28
Systolic blood pressure, mean ([1]; Dosing day 1, Hour 19, Valsartan 30 mg/kg): 166.11
Systolic blood pressure, mean ([1]; Dosing day 1, Hour 21, Valsartan 30 mg/kg): 162.24
Systolic blood pressure, mean ([1]; Dosing day 1, Hour 23, Valsartan 30 mg/kg): 158.31
Systolic blood pressure, mean ([1]; Dosing day 7, Hour 1, Valsartan 30 mg/kg): 167.78
Systolic blood pressure, mean ([1]; Dosing day 7, Hour 3, Valsartan 30 mg/kg): 158.75
Systolic blood pressure, mean ([1]; Dosing day 7, Hour 5, Valsartan 30 mg/kg): 156.95
Systolic blood pressure, mean ([1]; Dosing day 7, Hour 7, Valsartan 30 mg/kg): 165.23
Systolic blood pressure, mean ([1]; Dosing day 7, Hour 9, Valsartan 30 mg/kg): 176.77
Systolic blood pressure, mean ([1]; Dosing day 7, Hour 11, Valsartan 30 mg/kg): 182.56
Systolic blood pressure, mean ([1]; Dosing day 7, Hour 13, Valsartan 30 mg/kg): 182.29
Systolic blood pressure, mean ([1]; Dosing day 7, Hour 15, Valsartan 30 mg/kg): 175.64
Systolic blood pressure, mean ([1]; Dosing day 7, Hour 17, Valsartan 30 mg/kg): 179.39
Systolic blood pressure, mean ([1]; Dosing day 7, Hour 19, Valsartan 30 mg/kg): 175.46
Systolic blood pressure, mean ([1]; Dosing day 7, Hour 21, Valsartan 30 mg/kg): 165.83
Systolic blood pressure, mean ([1]; Dosing day 7, Hour 23, Valsartan 30 mg/kg): 170.13
weight gain (hygroscopicity) [2]: 0.34%
LBQ657 concentration-time profile ([3]; male, Sprague-Dawley): flattened relative to AHU377
conversion to LBQ657 ([3]; male, Sprague-Dawley): nearly complete conversion to LBQ657
LBQ657 exposure (based on AUC values) [3]: did not decrease relative to that of AHU377
tolerability [3]: very well tolerated
